# Values of other authors, collected in patent US7109174B2, “Anticonvulsant derivatives useful for preventing the development of type II diabetes mellitus and syndrome X” (Ortho-McNeil Pharmaceutical, Inc., priority 2000, dated 2006).
# What was measured:
# human epilepsy = settings: clinical trials; cited from earlier work
# [1] = test system: animal model of kindled epilepsy; settings: cited from earlier work
smiles,measurement,setting,value
"CC1(C)O[C@@H]2[C@@H](CO[C@@]3(COS(N)(=O)=O)OC(C)(C)O[C@@H]23)O1 [Topiramate, 2,3:4,5-bis-O-(1-methylethylidene)-β-D-fructopyranose sulfamate]",efficacy as adjunctive therapy or monotherapy in simple and complex partial seizures and secondarily generalized seizures,human epilepsy,effective
same,seizure block,[1],effectively block seizures
